The values below come from patent US7112605B2, “Sulfonyl-containing 3,4-diaryl-3-pyrrolin-2-ones, preparation method, and medical use thereof” (Research Institute of Materia Medica Chinese Acadamy of …, priority 2002, dated 2006).

One may read the IC50 as the midpoint of a concentration-inhibition curve.

In assay [1] the target is T1, Cyclooxygenase-1 (Mus musculus, UniProt P22437).
T1 construct: endogenous in cells; host or cells: thioglycollate-elicited peritoneal macrophages of male C57BL-6J mice
T1 sequence (P22437 27-602): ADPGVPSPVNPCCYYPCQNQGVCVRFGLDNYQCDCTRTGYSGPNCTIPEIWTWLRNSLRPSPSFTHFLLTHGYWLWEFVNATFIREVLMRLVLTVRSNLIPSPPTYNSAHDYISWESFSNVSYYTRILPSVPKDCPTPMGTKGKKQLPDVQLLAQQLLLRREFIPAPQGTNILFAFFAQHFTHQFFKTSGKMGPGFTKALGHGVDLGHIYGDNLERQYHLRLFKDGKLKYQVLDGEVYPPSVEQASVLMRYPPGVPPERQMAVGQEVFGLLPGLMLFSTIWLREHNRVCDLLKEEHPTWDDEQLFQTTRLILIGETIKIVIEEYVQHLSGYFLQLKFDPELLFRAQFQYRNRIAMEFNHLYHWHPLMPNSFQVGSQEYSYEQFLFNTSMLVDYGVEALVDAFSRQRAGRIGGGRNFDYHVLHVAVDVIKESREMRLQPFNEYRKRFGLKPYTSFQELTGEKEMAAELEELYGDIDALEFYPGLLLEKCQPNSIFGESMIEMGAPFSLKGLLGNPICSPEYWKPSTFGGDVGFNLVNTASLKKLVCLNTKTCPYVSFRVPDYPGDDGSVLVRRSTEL
Nature of the assay: COX-1 assay: calcimycin-stimulated 6-keto-PGF1 production in mouse peritoneal macrophages (RIA). The format is cell-based, mice. Particulars: calcimycin 1 μmol/L 1 h, 6-keto-PGF1 by RIA. The method, then: Cell culture: Adherent macrophages were harvested from the peritoneal cells of male mice (C57BL-6J, Level 2, from Experiment Animal Center, Academy of Military Medical Science) 3 d after the injection (ip) of brewer thioglycollate medium (5 mL/100 g body weight). Shortly, peritoneal cells obtained from 3˜4 mice were mixed and seeded in 48 well cell culture cluster (Costar) at a cell density of 1×10^9 cell/L in RPMI-1640 supplemented with 5% (v/v) newborn calf serum, 100 ku/L penicillin and […] streptomycin. After settlement for 2˜3 h, non-adherent cells were washed by D-Hanks' balanced salt solution. Then macrophages were cultured in RPMI-1640 without serum. Almost all of adherent cells were macrophages as assessed by Giemsa staining. Cell viability was examined by trypan blue dye exclusion. All incubation procedures were performed with 5% CO2 in humidified air at 37° C.
COX-1: assay Macrophages were incubated with test compound at different concentrations or solvent (Me2SO) for 1 h and were stimulated with calcimycin 1 μmol·L^−1 for 1 h. The amount of 6-keto-PGF1[…] (a stable metabolite of PGI2) in supernatants was measured by RIA according to manufacturer's guide. The inhibitory ratio was calculated as
(§1) [formula] Cs, Ct, Cc refer to 6-keto-PGF1[…] concentration in supernatants of calcimycin, test compound, and control groups, respectively.
(§2) Statistical analysis: Data were expressed as the mean±SD of more than three independent experiments. Dose-inhibitory effect curves were fit through “uphill dose response curves, variable slope” using Prism, GraphPad version3.00: […]

Assay [2] has as its system rat carrageenan-induced foot pad edema. Put plainly: Rat carrageenan-induced foot pad edema assay. The format is in vivo, rats. The conditions noted are these: 10 mg/kg oral. Here is the method:
Male Sprgue-Dawley rats (190–220 g) were fasted with free access to water at least 16 h prior to experiments. The rats were dosed orally with a 1 ml suspension of test compound in vehicle (0.5% methyl cellulose and 0.025% Tween-20) or with vehicle alone. One hour later a subplantar injection of 0.1 ml of 1% solution of caarageenan in 0.9% strile saline was administered to the right hind foot pad. Paw volume was measured with a displacement plethysmometer 2, 3, and 4 h after caarageenan injection.

Assay [3] addresses T2, Cyclooxygenase-2 (Mus musculus, UniProt Q05769).
T2 construct: endogenous in cells; host or cells: thioglycollate-elicited peritoneal macrophages of male C57BL-6J mice
T2 sequence (Q05769 18-604): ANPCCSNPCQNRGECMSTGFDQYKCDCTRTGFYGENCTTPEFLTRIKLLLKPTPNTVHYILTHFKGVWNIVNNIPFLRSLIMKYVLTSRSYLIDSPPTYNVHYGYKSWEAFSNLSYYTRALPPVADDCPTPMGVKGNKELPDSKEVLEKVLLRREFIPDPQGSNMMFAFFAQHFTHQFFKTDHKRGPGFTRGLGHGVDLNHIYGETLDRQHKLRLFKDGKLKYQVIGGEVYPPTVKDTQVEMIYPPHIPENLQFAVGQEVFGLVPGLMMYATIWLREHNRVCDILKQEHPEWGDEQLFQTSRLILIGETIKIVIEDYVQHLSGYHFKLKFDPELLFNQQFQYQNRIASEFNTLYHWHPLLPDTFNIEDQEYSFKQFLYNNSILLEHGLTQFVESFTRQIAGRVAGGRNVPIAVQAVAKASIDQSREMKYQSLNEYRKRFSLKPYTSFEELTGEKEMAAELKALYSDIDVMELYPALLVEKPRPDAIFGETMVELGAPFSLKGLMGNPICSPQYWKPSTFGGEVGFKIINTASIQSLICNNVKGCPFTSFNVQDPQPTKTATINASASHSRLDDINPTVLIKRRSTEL
Put plainly: COX-2 assay: LPS-stimulated PGE2 production in mouse peritoneal macrophages (RIA). The format is cell-based, mice. The conditions noted are these: for IC50: mouse peritoneal macrophages, LPS 1 mg/L 9 h, PGE2 by RIA; for COX-1/COX-2: ratio of IC50 COX-1 to IC50 COX-2. Here is the method: Cell culture: Adherent macrophages were harvested from the peritoneal cells of male mice (C57BL-6J, Level 2, from Experiment Animal Center, Academy of Military Medical Science) 3 d after the injection (ip) of brewer thioglycollate medium (5 mL/100 g body weight). […] After settlement for 2˜3 h, non-adherent cells were washed by D-Hanks' balanced salt solution. […] Cell viability was examined by trypan blue dye exclusion. All incubation procedures were performed with 5% CO2 in humidified air at 37° C.
COX-2 assay: Macrophages were incubated with test compound at different concentrations or solvent (Me2SO) for 1 h and were stimulated with LPS 1 mg/L for 9 h. The amount of PGE2 in supernatants was measured by RIA. The inhibitory ratio was calculated using the same formula as in COX-1 assay section. Cs, Ct, Cc refer to PGE2 concentration in supernatants of LPS, test compound, and control groups, respectively.
as §1, §2

Where [4] appears, read: 3 h after carrageenan, read-out: inhibitory percentage of edema, 3 hr.
Where [5] appears, read: 4 h after carrageenan, read-out: inhibitory percentage of edema, 4 hr.

Structures are written as SMILES. Where two headings read alike, the source gives them in different places.

Turning to `CS(=O)(=O)c1ccc(C2=C(c3cccc(Cl)c3)CN(C3CC3)C2=O)cc1` [Example 108, N-Cyclopropyl-3-(4-methylsulfonylphenyl)-4-(3-chlorophenyl)-2,5-dihydropyrrole-2-one], the IC50 in assay [1] is greater than 10000 nM; in assay [3], 783 nM. In addition, the figures for the inhibition at 10 mg/kg in assay [2] (setting [4]) and in assay [2] (setting [5]) were 36.4% and 43.5%, respectively.

Regarding `CCCN1CC(c2ccc(S(C)(=O)=O)cc2)=C(c2ccccc2)C1=O` [Example 115, N-Propyl-3-phenyl-4-(4-methylsulfonylphenyl)-2,5-dihydropyrrole-2-one], the IC50 in assay [1] came out at 149 nM; in assay [3] it was 19.5 nM. The inhibition at 10 mg/kg in assay [2] (setting [4]) was 22.8%; in assay [2] (setting [5]) it was 27.2%. Also, the COX-1/COX-2 in assay [3] is listed as 7.6.

With `CN1CC(c2ccc(S(C)(=O)=O)cc2)=C(c2ccc(Cl)cc2)C1=O` [Example 117, N-Methyl-3-(4-chlorophenyl)-4-(4-methylsulfonylphenyl)-2,5-dihydropyrrole-2-one], the IC50 in assay [1] amounted to 159 nM; in assay [3], 24.2 nM. The inhibition at 10 mg/kg in assay [2] (setting [4]) worked out at 48.2%; in assay [2] (setting [5]), 59.3%. Further, in assay [3], the COX-1/COX-2 is 6.6.

`CN1CC(c2ccc(S(C)(=O)=O)cc2)=C(c2ccc(Br)cc2)C1=O` [Example 119, N-Methyl-3-(4-bromophenyl)-4-(4-methylsulfonylphenyl)-2,5-dihydropyrrole-2-one]: the figures for the IC50 in assay [1] and in assay [3] were 57.2 nM and 11.8 nM, respectively. For the same compound, the inhibition at 10 mg/kg in assay [2] (setting [4]) is 48%; in assay [2] (setting [5]), 49.8%. The COX-1/COX-2 in assay [3] is 4.9.

Regarding `CN1CC(c2ccc(S(C)(=O)=O)cc2)=C(c2ccc(F)cc2)C1=O` [Example 120, N-Methyl-3-(4-fluorophenyl)-4-(4-methylsulfonylphenyl)-2,5-dihydropyrrole-2-one], the IC50 in assay [1] stood at 200 nM; in assay [3], 13.8 nM. The inhibition at 10 mg/kg was 39.2% in assay [2] (setting [4]) and 26.2% in assay [2] (setting [5]). Moreover, the COX-1/COX-2 in assay [3] is 14.5.

Turning to `CCCN1CC(c2ccc(S(C)(=O)=O)cc2)=C(c2ccc(C)cc2)C1=O` [Example 122, N-Propyl-3-(4-methylphenyl)-4-(4-methylsulfonylphenyl)-2,5-dihydropyrrole-2-one], the IC50 in assay [1] came out at 91.3 nM; in assay [3], 15 nM. For the same compound, the inhibition at 10 mg/kg is 57.2% in assay [2] (setting [4]) and 59.3% in assay [2] (setting [5]).

Regarding `CCCN1CC(c2ccc(S(C)(=O)=O)cc2)=C(c2ccc(F)cc2)C1=O` [Example 123, N-Propyl-3-(4-fluorophenyl)-4-(4-methylsulfonylphenyl)-2,5-dihydropyrrole-2-one], the IC50 amounted to 502 nM in assay [1] and 28.6 nM in assay [3]. The inhibition at 10 mg/kg was determined as 49.6% in assay [2] (setting [4]) and 50.3% in assay [2] (setting [5]).

On to `CCCN1CC(c2ccc(S(C)(=O)=O)cc2)=C(c2ccc(Cl)cc2)C1=O` [Example 124, N-Propyl-3-(4-chlorophenyl)-4-(4-methylsulfonylphenyl)-2,5-dihydropyrrole-2-one], for which the IC50 in assay [1] was found to be 8.02 nM; in assay [3], 24.5 nM. Also, the inhibition at 10 mg/kg in assay [2] (setting [4]) was 39.4%; in assay [2] (setting [5]), 32.7%.

`Cc1ccc(C2=C(c3ccc(S(C)(=O)=O)cc3)CN(C3CC3)C2=O)cc1` [Example 125, N-Cyclopropyl-3-(4-methylphenyl)-4-(4-methylsulfonylphenyl)-2,5-dihydropyrrole-2-one]: the IC50 in assay [1] turned out to be 236 nM; in assay [3] it was 94.8 nM. In addition, the inhibition at 10 mg/kg in assay [2] (setting [4]) was found to be 34.1%; in assay [2] (setting [5]) it was 31.1%. Further, the COX-1/COX-2 in assay [3] is 2.5.

Take `CS(=O)(=O)c1ccc(C2=C(c3ccccc3)C(=O)OC2)cc1` [Rofecoxib, reference compound]: the IC50 in assay [1] was greater than 10000 nM; in assay [3], 9.57 nM. For the same compound, the inhibition at 10 mg/kg stood at 45.9% in assay [2] (setting [4]) and 50.2% in assay [2] (setting [5]).
